Measured values: patent US20180188224A1, “METHOD FOR CONSTRUCTING A SENSORY SPACE” (CENTRE SCIENTIFIQUE ET TECHNIQUE DU BATIMENT (CSTB), priority 2015, published 2018)

Experiments:
[1] = test system: four non-smoking volunteers (2 men and 2 women); assay: Taste intensity score, 11-point scale (0 not intense to 10 very intense); type: in vivo, human; conditions: averaged over 4 subjects, 6 repetitions each
Experimental: (§1) In this test, four non-smoking volunteers (2 men and 2 women) were chosen from 12 people for their performance in taste recognition. Their mean age was 32 years, ranging from 24 to 40 years. […] These four people were trained for several months to recognize and detect the four basic tastes, and also regarding the procedures of sensory and physiological analysis.
(§2) The four basic tastes (sweet, salty, sour and bitter) were used. The solutions were prepared with citric acid for the sour taste, caffeine for the bitter taste, sodium chloride for the salty taste and sucrose for the sweet taste (all purchased from Sigma Aldrich, France) in Evian water. Evian water was also used as control and blank. Each taste was prepared with the four concentrations mentioned in table 1.
(§3) The amount of solution to be tested was standardized at 10 ml. In order to impregnate the whole of the oral cavity, the subjects kept the solution in their mouth for 5 s before swallowing it.
(§4) The sessions were individual and the subjects were asked not to eat or drink anything for at least 1 h before the test. They arrived 15 min before the start of the session in order to acclimatize to the environmental conditions, in particular the temperature of the room (kept constant at 23° C.) and to be resting seated on a comfortable chair. The 16 solutions for testing and two additional samples of water containing solely Evian water, added to the references, were presented monadically following a test order determined from a “balanced incomplete block design”. During a session, 9 samples out of 18 were presented to minimize sensory fatigue. In addition, a sample of Evian was always tested as a “blank” sample in order to avoid the first-order effect (Lawless, H. T. & Heymann, H., 2010, Sensory evaluation of food: Principles and practices. Springer, New York) and was excluded from the analysis. A light signal was sent to give the instruction to test the sample. When the disturbance to the nervous system returned to its baseline level (after approximately 1 min), a second light signal indicated to the subjects that they should complete a questionnaire regarding the stimulus tested previously. The first part of the questionnaire was linked to the identification of the taste (i.e. determining the quality of the taste); the subjects had to choose between five labels: sweet, salty, sour, bitter or neutral. They then had to assign a taste intensity score on an 11-point scale (from 0 “not intense” (i.e. taste of Evian only) to 10 “very intense”) and finally to give a hedonic score on an 11-point scale (from 0 “very unpleasant” to 10 “very pleasant”, 5 being “neutral”).
(§5) This procedure was repeated for each of the 9 stimuli. A session lasted approximately 45 min including a debriefing at the end of the test to ensure understanding of the sense of the signal variations. The experiment was repeated 12 times per subject, meaning that the data are composed of 6 data sets per subject and per product and 12 data sets for the Evian product per subject. Thus, the database consists of 432 samples.
(§6) The effect of the taste on the hedonic and intensity scores was analyzed by an analysis of variance (ANOVA) including the product effect, the subject effect and the product-subject interaction. The subject effect was fixed because there were only 4 subjects and the results could only be applied to a particular schema. The differences were considered to be significant at a level of 0.05.

[2] = test system: four non-smoking volunteers (2 men and 2 women); assay: Hedonic score, 11-point scale (0 very unpleasant to 10 very pleasant, 5 neutral); type: in vivo, human
Experimental: as §1, §2, §3, §4, §5, §6

subject 3 = assay: Skin blood microcirculation (SKBF) response to taste stimuli, PCA sensory space (ESRP); type: in vivo, human; conditions: concentration 4
Excerpt: A Periflux PF 5010 (Perimed AB, Sweden) system was chosen, which enables non-invasive monitoring of blood perfusion in the capillaries, arterioles and venules.
The unit of blood perfusion is arbitrary and corresponds to the product of the mean rate of displacement of the red blood cells by their concentration. The system Periflux PF 5010 has a 780 nm, 1 mm diameter laser beam without thermal effect. An optical fiber probe PR407 is used. The low-energy laser beam is transmitted by the probe to the tissue. A portion of the light reflects off the static structures and another portion of the light reflects off the moving blood cells. When the light reflects off a moving cell, the wavelength is modified, which corresponds to the Doppler effect. The scattered light collected by the optical fiber is used to calculate the perfusion value. The measurement is expressed in perfusion units (PU). Recording was carried out on the pad of the index finger of the non-dominant hand, due to the high level of vascularization of this zone. The perfusion signals were recorded by an 8-channel PowerLab PL35088/35 acquisition system; the data were collected at a frequency of 1 kHz and analyzed by the LabChart® software (AD instruments Ltd, United Kingdom).
. Then, the peak was analyzed manually by selecting the whole of the peak and analyzing it with the LabChart® software (FIG. 1).
Several shape parameters were extracted from the signal (i.e. amplitude, duration, gradient). […]
The SKBF responses were analyzed individually by one-way ANOVA (product effect), the subjects having their own “preferential channel” (Lacey, J. I., Bateman, D. E. & VanLEHN, R., 1953, Autonomic response specificity: An experimental study. Psychosomatic Medicine, 15, 8-21). […]

[3] = cited from earlier work; for detection threshold concentration of the basic taste: literature (Purves 2005; Robinson 2005); for detection threshold: representative compound of a primary taste

With `[Cl-].[Na+]` [NaCl, sodium chloride] the intensity score ([1]; concentration 4) was 8.6±1.0, the hedonic score ([2]; each of the NaCl concentrations (one value given)) was 1.3±0.9 and the “SKBF disturbance (signal width, area of the peak; ANOVA)” value (subject 3) was “significantly stronger disturbance than the others”. The “detection threshold concentration of the basic taste” value [3] was “approximately 10 mmol·l^−1” and the detection threshold [3] was 0.584 g/L.
Work on `O=C(O)CC(O)(CC(=O)O)C(=O)O` [Citric acid, citric acid] yielded an intensity score ([1]; concentration 1) of 1.2±1.5, an intensity score ([1]; concentration 2) of 1.0±1.0 and an intensity score ([1]; concentration 4) of 8.4±1.2. For the same compound, the hedonic score ([2]; concentration 4 (highest)) was 3.3±2.4, the “SKBF disturbance (signal width, area of the peak; ANOVA)” value (subject 3) was “significantly stronger disturbance than the others” and the “detection threshold concentration of the basic taste” value [3] was “approximately 2 mmol·l^−1”. For the same compound, the detection threshold [3] was 0.384 to 0.5 g/L.
